Experimental findings from paper PMC12579162, “Synthesized Depside Molecules Suppress the Progression of Colorectal Cancer by Binding VDAC1/PHB/MMP9 Being at the Crossroads of Stemness, Motility, Apoptosis, and Metabolism” (MedComm, 2025) are described below.

Series [1] can be described thus: Pharmacokinetic study in rat. The conditions noted are these: male, Sprague-Dawley, plasma; for AUC(0-inf): read-out: AUCINF obs. Type of series: in vivo, Sprague–Dawley rats. As to the method:
The stock solution of SB4 and SB5 was prepared at a concentration of 1.0 mg/mL in DMSO. Additionally, the standard solutions for SB4 and SB5 were prepared by diluting with 60% ACN (0.1% formic acid) in distilled water (DW). The final concentrations of the prepared standard solutions were 5, 10, 25, 50, 100, 250, 500, and 1000 ng/mL, and they were prepared in 1.5 mL polyethylene microtubes (Axygen Inc., Union City, CA, USA). Furthermore, quality control samples were manufactured using DMSO, with final concentrations of 15 ng/mL (low quality control), 80 ng/mL (mid quality control), and 800 ng/mL (high quality control) using 60% ACN (0.1% formic acid) in DW. The IS solution (Deucravacitinib) was also prepared in DMSO and diluted to a final concentration of 10 ng/mL in 60% ACN (0.1% formic acid) in DW.
The sample stored at −80°C was dissolved at room temperature, vortexed for 3 s, and a protein precipitation method using ACN was employed. In a 1.5 mL polyethylene microtube, 10 µL of the IS (10 ng/mL) was added to 45 µL of plasma, and 500 µL of ACN was added. Next, the sample was mixed in a vortex (M37610‐33; Barnstead International, USA) for 3 min. Then, 500 µL of the supernatant was centrifuged at 10000 g for 10 min and transferred to a LC vial, from which 10 µL was injected into the LC–MS/MS system.
The LC–MS/MS system comprises a SCIEX Triple Quad 6500+ system (Melbourne, Australia) coupled with a Shimadzu Nexera series SCL‐40 system controller, DGU‐405 degassing unit, LC‐40D X3 solvent delivery module, SIL‐40C X3 autosampler, and CTO‐40C column oven (Melbourne, Australia).
Chromatographic separations were performed using a Synergi 4 µm Hydro‐RP 80 Å, LC Column (30 × 2 mm). The mobile phase consisted of 0.1% FA in DW and ACN in 0.1% FA. The optimal flow rate was 0.5 mL/min, and the linear gradient elution profile was as follows: 0–0.5 min 20% B, 0.5–1.0 min 80% B, 1.0–2.0 min 80% B, 2.0–2.5 min 20% B, 2.5–3.0 min 20% B. The injection volume was 5 µL, and the total analysis time per sample was 3.0 min. The column oven temperature was maintained at 40°C.
The sample was ionized by an electrospray ionization source. The mass spectrometer was operated in positive ion mode with MRM scan mode for high sensitivity and selectivity. The turbo ion gas temperature was set at 400°C. To optimize the source parameters and compound parameters, a standard solution of 10 ng/mL was injected into the mass spectrometer at a rate of 7 µL/min through an infusion pump. The MRM transitions selected for quantification were m/z 375.075 to 150.100 for DA, m/z 447.113 to 415.200 for SB‐04, m/z 461.119 to 429.100 for SB‐05, and m/z 426.093 to 358.000 for the IS (Deucravacitinib). The system operating programs were Analyst software (version 1.7.2) and Chromelon.
The animal testing procedure was approved by the Animal Management Committee of Dankook University (21‐038). Seven‐week‐old male Sprague–Dawley rats (weighing 250–290 g) were purchased from Samtaco Inc. (Osan, South Korea). All rats were housed randomly in groups of four, maintained under appropriate lighting and room conditions (22 ± 2°C, relative humidity 50 ± 10%, with a 12‐h light/dark cycle). Prior to the experiments, the rats had free access to food (Samtaco Inc.) and water in their cages. The animal experiments were conducted after a minimum environmental adaptation period of 1 week. On the day of the experiments, the jugular vein of each rat was cannulated individually with polyethylene tubing (Clay Adams, Parsippany, NJ, USA) under anesthesia. The cannula was exteriorized to the dorsal side of the neck, where the cannula terminated with a long silastic tubing (Dow Corning, Midland, MI, USA). The silastic tube was covered with a wire to allow free movement of the rat. Each rat was housed individually in a rat metabolic cage (Daejong Scientific Company, Seoul, Korea) and was allowed to recover from anesthesia for 4–5 h before the study began. The rats were not restrained during the experimental period. […]

The subject of series [2] is CT26–iRFP cells. Nature of the series: CT26–iRFP derived tumor growth model. Format: in vivo, BALB/C mice. Particulars: 5, 10, or 20 mg/kg intraperitoneally every other day. How it is done: The antitumor efficacy of VDAC1/PHB/MMP‐binding compound was evaluated using a xenograft model. Six‐week‐old male BALB/C mice were obtained from OrientBio. 1 × 10⁶ CT26 cells were subcutaneously implanted to each mouse. After 1 week inoculation, mice were treated with intraperitoneal injections of either vehicle (DMSO/PBS) or SB4 at a dose of 5, 10 and 20 mg/kg, administered every other day. Tumor volumes and body weight was measured every 2 days. Bioimaging of near‐infrared fluorescence was obtained using a FOBI system (Cellgentek, Osong, Korea) for three time point. After euthanizing the mice, tumor tissues were successfully collected, and the tumor weight was measured for each sample. According to the Guiding Principles in the Care and Use of Animals (DHEW publication, NIH 80–23), the in vivo experiments were performed with the approval of the Sunchon National University Research Institutional Animal Care and Use Committee (SCNU IACUC‐2024‐17).

As for `COCCOc1c(C)c(OC(=O)c2c(C)cc(OC)c(C)c2OC)cc(C)c1C(=O)OC` [SB4, 4-(Methoxycarbonyl)-3-(2-methoxyethoxy)-2,5-dimethylphenyl 2,4-dimethoxy-3,6-dimethylbenzoate], in series [1] (IP 10 mg/kg), the AUC(0-t) is 173 ± 16.3 ng·h/mL, the Cmax is 60.8 ± 18.2 ng/mL, the Tmax was 0.31 ± 0.13 h and the AUC(0-inf) was found to be 394 ± 172 ng·h/mL. Also, in series [1] (PO 10 mg/kg), the AUC(0-t) was determined as 113 ± 19.2 ng·h/mL, the Cmax came to 27.8 ± 14.7 ng/mL and the Tmax came to 2.88 ± 2.59 h. For the same compound, in series [2], the mouse body weight result is on record as “did not influence mouse body weight”. The “tumor volume and weight” value in series [2] (versus control) is “significantly reduced both tumor volume and weight in a dose‐dependent manner”.

Turning to `COCCCOc1c(C)c(OC(=O)c2c(C)cc(OC)c(C)c2OC)cc(C)c1C(=O)OC` [SB5, 4-(Methoxycarbonyl)-3-(3-methoxypropoxy)-2,5-dimethylphenyl 2,4-dimethoxy-3,6-dimethylbenzoate], in series [1] (IP 10 mg/kg), the AUC(0-t) turned out to be 108 ± 17.9 ng·h/mL, the Cmax came out at 45.63 ± 0.31 ng/mL, the Tmax was determined as 0.31 ± 0.13 h and the AUC(0-inf) is 209 ± 32.4 ng·h/mL. For the same compound, in series [1] (PO 10 mg/kg), the AUC(0-t) was found to be 87.1 ± 11.8 ng·h/mL, the Cmax came to 22 ± 8.01 ng/mL and the Tmax came to 4.13 ± 2.59 h.
